From patent publication US10072017B2, “Compounds and methods for the treatment of cystic fibrosis” (Flatley Discovery Lab, LLC, priority 2015, dated 2018)

Biological target: T1, CFTR (Homo sapiens, UniProt P13569, DEL508-508)
T1 construct: Primary CF airway epithelial cells were obtained from the UNC Cystic Fibrosis Tissue Procurement and Cell Culture Core; host or cells: primary CF airway epithelial cells
Assay: Equivalent current assay in Primary CF airway epithelial cells (NAUC)
Type: cell-based
Details: 24 h, normalized to VX809 (3 μM) positive control; for Nauc @ 3 μM: 3 μM test compound; for Nauc @ 10 μM: 10 μM test compound
Outline: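 NAUC is the area under the curve from forskolin (10 μM) plus VX770 (1 μM) addition to CFTR-172 (20 μM) block, after benzamil (5 μM). It is corrected for vehicle and scaled to 3 μM VX809 as 1.0 and DMSO as 0.0. Cells were exposed for 24 h to compounds with VX809; medians of ≥4 replicates were fitted sigmoidally.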

T1 sequence (P13569 with tags, fused parts or gaps DEL508-508): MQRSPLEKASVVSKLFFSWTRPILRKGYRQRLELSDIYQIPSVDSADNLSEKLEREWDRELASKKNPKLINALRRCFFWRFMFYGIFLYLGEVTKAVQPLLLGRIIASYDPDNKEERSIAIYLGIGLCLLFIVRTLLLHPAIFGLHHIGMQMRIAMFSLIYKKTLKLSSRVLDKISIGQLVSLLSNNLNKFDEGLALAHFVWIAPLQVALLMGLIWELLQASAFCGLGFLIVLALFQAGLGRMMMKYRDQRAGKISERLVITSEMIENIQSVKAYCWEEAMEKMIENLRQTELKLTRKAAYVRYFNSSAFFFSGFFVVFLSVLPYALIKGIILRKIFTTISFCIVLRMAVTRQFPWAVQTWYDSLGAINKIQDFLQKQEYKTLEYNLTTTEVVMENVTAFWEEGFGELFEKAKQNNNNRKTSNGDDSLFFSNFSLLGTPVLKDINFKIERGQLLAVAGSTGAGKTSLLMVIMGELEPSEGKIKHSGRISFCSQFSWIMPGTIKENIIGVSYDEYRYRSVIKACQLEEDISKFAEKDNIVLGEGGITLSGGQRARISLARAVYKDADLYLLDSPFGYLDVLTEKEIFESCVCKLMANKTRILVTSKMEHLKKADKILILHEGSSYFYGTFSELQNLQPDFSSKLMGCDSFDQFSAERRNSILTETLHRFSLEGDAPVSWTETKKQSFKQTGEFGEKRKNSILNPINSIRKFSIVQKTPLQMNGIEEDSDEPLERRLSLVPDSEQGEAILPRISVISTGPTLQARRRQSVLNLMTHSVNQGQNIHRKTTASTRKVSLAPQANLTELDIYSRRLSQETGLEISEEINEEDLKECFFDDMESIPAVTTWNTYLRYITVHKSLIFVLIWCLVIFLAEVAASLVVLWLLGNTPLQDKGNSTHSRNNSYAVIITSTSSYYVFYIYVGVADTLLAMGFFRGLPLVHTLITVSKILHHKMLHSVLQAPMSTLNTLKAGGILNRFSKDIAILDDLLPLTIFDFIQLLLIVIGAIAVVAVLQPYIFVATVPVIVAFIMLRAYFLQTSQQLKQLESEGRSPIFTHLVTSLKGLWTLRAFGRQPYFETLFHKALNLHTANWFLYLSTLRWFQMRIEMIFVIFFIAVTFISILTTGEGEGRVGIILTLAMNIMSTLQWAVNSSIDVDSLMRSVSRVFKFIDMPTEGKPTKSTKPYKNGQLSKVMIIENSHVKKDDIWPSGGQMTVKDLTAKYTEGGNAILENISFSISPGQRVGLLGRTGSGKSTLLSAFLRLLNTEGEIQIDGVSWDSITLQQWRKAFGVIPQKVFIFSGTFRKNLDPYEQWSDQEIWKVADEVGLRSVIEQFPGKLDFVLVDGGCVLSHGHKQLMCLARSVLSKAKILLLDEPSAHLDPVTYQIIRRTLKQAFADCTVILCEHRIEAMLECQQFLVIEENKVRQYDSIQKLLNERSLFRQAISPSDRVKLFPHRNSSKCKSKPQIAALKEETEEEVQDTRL

Compound | Nauc @ 3 μM | Nauc @ 10 μM
COc1c(Cl)cc(N2C(=O)C3C4CC(F)(F)CN4C4(C(=O)Nc5c(Cl)cc(Cl)cc54)C3C2=O)cc1Cl (single isomer, unassigned) [Example 221] | +++ (NAUC “+++” refers to an observed NAUC >170% of positive control) | +++ (NAUC “+++” refers to an observed NAUC >170% of positive control)
COc1c(Cl)cc(N2C(=O)C3C4CC(C(F)(F)F)CN4C4(C(=O)Nc5c(Cl)cc(Cl)cc54)C3C2=O)cc1Cl (stereo not shown) [Example 213] | ++ (NAUC “++” refers to an observed NAUC 170-140% of positive control) | +++ (NAUC “+++” refers to an observed NAUC >170% of positive control)
COc1cc(Cl)cc(N2C(=O)C3C4C[C@H](F)CN4C4(C(=O)Nc5c(Cl)cc(Cl)cc54)C3C2=O)c1 (single isomer, unassigned) [Example 6, (7′S)-5,7-Dichloro-2′-(3-chloro-5-methoxyphenyl)-7′-fluoro-3a′,6′,7′,8′,8a′,8b′-hexahydro-1′H-spiro[indoline-3,4′-pyrrolo[3,4-a]pyrrolizine]-1′,2,3′(2′H)-trione] | +++ (NAUC “+++” refers to an observed NAUC >170% of positive control) | +++ (NAUC “+++” refers to an observed NAUC >170% of positive control)
C[C@@]1(O)CC2C3C(=O)N(c4cc(Cl)cc(Cl)n4)C(=O)C3C3(C(=O)Nc4c(Cl)cc(Cl)cc43)N2C1 (stereo partly shown) [Example 206] | ++ (NAUC “++” refers to an observed NAUC 170-140% of positive control) | +++ (NAUC “+++” refers to an observed NAUC >170% of positive control)
O=C1C2C3C[C@H](O)CN3C3(C(=O)Nc4c(Cl)cc(Cl)cc43)C2C(=O)N1c1cc(Cl)cc(Cl)c1 (single isomer, unassigned) [Example 46] | ++ (NAUC “++” refers to an observed NAUC 170-140% of positive control) | + (NAUC “+” refers to an observed NAUC <140% of positive control)
O=C1C2C(Cc3ccccc3F)NC3(C(=O)Nc4c(Cl)cc(Cl)cc43)C2C(=O)N1c1cc(Cl)cc(Cl)c1 (stereo not shown) [Example 181] | +++ (NAUC “+++” refers to an observed NAUC >170% of positive control) | +++ (NAUC “+++” refers to an observed NAUC >170% of positive control)
Cc1cccc(N2C(=O)C3C4CCCN4C4(C(=O)Nc5c(Cl)cc(Cl)cc54)C3C2=O)n1 (stereo not shown) [Example 183] | ++ (NAUC “++” refers to an observed NAUC 170-140% of positive control) | + (NAUC “+” refers to an observed NAUC <140% of positive control)
COc1cc(Cl)cc(N2C(=O)C3C4C[C@](C)(F)CN4C4(C(=O)Nc5c(Cl)cc(Cl)cc54)C3C2=O)c1 (stereo partly shown) [Example 205] | ++ (NAUC “++” refers to an observed NAUC 170-140% of positive control) | +++ (NAUC “+++” refers to an observed NAUC >170% of positive control)
[2H]C12C(=O)N(c3cc(Cl)cc(OC)c3)C(=O)C1([2H])C1(C(=O)Nc3c(Cl)cc(Cl)cc31)N1C[C@@H](Cl)CC12 (stereo partly shown) [Example 146] | +++ (NAUC “+++” refers to an observed NAUC >170% of positive control) | +++ (NAUC “+++” refers to an observed NAUC >170% of positive control)
CC1CC2C3C(=O)N(c4cc(Cl)cc(Cl)c4)C(=O)C3C3(C(=O)Nc4c(Cl)cc(Cl)cc43)N2C1 (single isomer, unassigned) [Example 72] | +++ (NAUC “+++” refers to an observed NAUC >170% of positive control) | + (NAUC “+” refers to an observed NAUC <140% of positive control)
C[C@]1(F)CC2C3C(=O)N(c4cc(Cl)cc(Cl)n4)C(=O)C3C3(C(=O)Nc4c(Cl)cc(Cl)cc43)N2C1 (stereo partly shown) [Example 231] | + (NAUC “+” refers to an observed NAUC <140% of positive control) | +++ (NAUC “+++” refers to an observed NAUC >170% of positive control)
